One assay deals with T1, HPK1 (Homo sapiens, UniProt Q92918).
T1 construct: purchased Signalchem M23-11G
T1 sequence (Q92918 1-346 limits assumed): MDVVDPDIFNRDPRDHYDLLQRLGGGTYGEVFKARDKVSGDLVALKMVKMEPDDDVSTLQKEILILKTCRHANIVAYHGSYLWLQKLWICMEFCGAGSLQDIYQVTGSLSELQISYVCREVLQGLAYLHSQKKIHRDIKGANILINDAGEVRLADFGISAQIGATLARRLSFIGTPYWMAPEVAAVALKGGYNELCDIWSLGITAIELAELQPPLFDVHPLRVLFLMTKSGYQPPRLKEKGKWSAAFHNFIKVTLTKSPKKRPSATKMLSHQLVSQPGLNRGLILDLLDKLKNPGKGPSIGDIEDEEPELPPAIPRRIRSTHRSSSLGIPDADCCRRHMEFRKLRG
The experiment in a line: HPK1 Lantha Binding Assay ("Lanth"). To be noted: 15 nM Tracer222, read-out: HPK1 Ki (nM) L = Lanth. As for the experimental part:
Example B2: HPK1 Lantha Binding Assay (“Lanth”)
The compounds to be tested were diluted by preparing 12.5 uL/well of 5 mM compound (100×) in columns 2 and 13 and 10 ul/well of DMSO in columns 3-12, 14-23, and wells A1-H1 and I24-P24 of the compound plate using a Bravo liquid handling platform. For the reference compound, the top concentration was 1 mM. To the plate was added 10 ul 2 mM staurosporine in wells J1-P1 and A24-H24. A 11 point 5-fold compound serial dilution was performed using the Bravo liquid handling platform. From the plate were transferred 2.5 ul of the solutions from column 2 and column 13 to the 10 ul of DMSO in columns 3 and 14 & so on. The compound plate was centrifuged at 2500 rpm for 1 min. From the compound plate was transferred 80 nl of the compounds into an assay plate using the Echo liquid handler system. One compound plate makes two assay plates. Each assay plate is sealed and stored in an N2 cabinet.
The following assay concentrations and times were used: 2 nM HPK1, 2 nM Eu-Anti-GST Ab, and 15 nM Tracer222, with 60 min incubation time.
For the binding assay, 4 ul 2×HPK1 and Eu-anti-GST antibody were added to each well of the assay plate using a Multidrop reagent dispenser. The solutions were incubated in a 23 C incubator for 1 h. To each well of the assay plate was added 4 ul 2×Tracer-222 using a Multidrop reagent dispenser. The solutions were again incubated in a 23 C incubator for 1 h. The results of the assay were read using an Envision plate reader with the following parameters: TR_FRET, 340ex/615 and 665em; 100 usec Delay; and 200 usec integration.
Compound Ki was analyzed using Morrison ki fit model in XL-fit • a. fit=(1−((((E+x)+(Ki*(1+(S/Kd))))−(((((E+x)+(Ki*(1+(S/Kd))))^2)−((4*E)*x))^0.5))/(2*E))) • res=(y-fit) • b. Parameters: • E=enzyme concentration • S=Tracer222 concentration, Kd=Tracer222 Kd • All measurements reported using the same units (uM)
For the compound `Cc1cc(Nc2cc3cc(-c4cnccc4C)ncc3cn2)nc(N)n1` [Compound 210, 6-methyl-N^4-(6-(4-methylpyridin-3-yl)-2,7-naphthyridin-3-yl)pyrimidine-2,4-diamine], the Ki – broadly, the dissociation constant of the complex between target and ligand, obtained from inhibition or displacement – amounted to 3.9 nM.
With `Cc1ccncc1-c1cc2cc(Nc3ccc(CCO)cn3)ncc2cn1` [Compound 208, 2-(6-((6-(4-methylpyridin-3-yl)-2,7-naphthyridin-3-yl)amino)pyridin-3-yl)ethan-1-ol], the inhibition constant Ki came to 28 nM.
As for `CNS(=O)(=O)c1ccc(Nc2cc3cc(-c4cnccc4C)ncc3cn2)nc1` [Compound 207, N-methyl-6-((6-(4-methylpyridin-3-yl)-2,7-naphthyridin-3-yl)amino)pyridine-3-sulfonamide], the inhibition constant (Ki) came out at 11 nM.
With `Cc1c(-c2cc3cc(Nc4cc5n(n4)CC(=O)N(C(C)C)CC5)ncc3cn2)cnc2c1NCCO2` [Compound 103, 6-isopropyl-2-((6-(8-methyl-2,3-dihydro-1H-pyrido[2,3-b][1,4]oxazin-7-yl)-2,7-naphthyridin-3-yl)amino)-5,6-dihydro-4H-pyrazolo[1,5-d][1,4]diazepin-7(8H)-one], the inhibition constant (Ki) was 0.39 nM.
For `Cc1ccncc1-c1cc2cc(Nc3ccc(C(=O)N(C)C)cn3)ncc2cn1` [Compound 204, N,N-dimethyl-6-((6-(4-methylpyridin-3-yl)-2,7-naphthyridin-3-yl)amino)nicotinamide], the Ki came to 24 nM.

In a further assay the target is T2, HPK full length, T165E S171E (Homo sapiens, UniProt Q92918, S171E/T165E).
T2 construct: HPK full length, T165E S171E: 0.125 nM
T2 sequence (Q92918 whole entry T165E/S171E): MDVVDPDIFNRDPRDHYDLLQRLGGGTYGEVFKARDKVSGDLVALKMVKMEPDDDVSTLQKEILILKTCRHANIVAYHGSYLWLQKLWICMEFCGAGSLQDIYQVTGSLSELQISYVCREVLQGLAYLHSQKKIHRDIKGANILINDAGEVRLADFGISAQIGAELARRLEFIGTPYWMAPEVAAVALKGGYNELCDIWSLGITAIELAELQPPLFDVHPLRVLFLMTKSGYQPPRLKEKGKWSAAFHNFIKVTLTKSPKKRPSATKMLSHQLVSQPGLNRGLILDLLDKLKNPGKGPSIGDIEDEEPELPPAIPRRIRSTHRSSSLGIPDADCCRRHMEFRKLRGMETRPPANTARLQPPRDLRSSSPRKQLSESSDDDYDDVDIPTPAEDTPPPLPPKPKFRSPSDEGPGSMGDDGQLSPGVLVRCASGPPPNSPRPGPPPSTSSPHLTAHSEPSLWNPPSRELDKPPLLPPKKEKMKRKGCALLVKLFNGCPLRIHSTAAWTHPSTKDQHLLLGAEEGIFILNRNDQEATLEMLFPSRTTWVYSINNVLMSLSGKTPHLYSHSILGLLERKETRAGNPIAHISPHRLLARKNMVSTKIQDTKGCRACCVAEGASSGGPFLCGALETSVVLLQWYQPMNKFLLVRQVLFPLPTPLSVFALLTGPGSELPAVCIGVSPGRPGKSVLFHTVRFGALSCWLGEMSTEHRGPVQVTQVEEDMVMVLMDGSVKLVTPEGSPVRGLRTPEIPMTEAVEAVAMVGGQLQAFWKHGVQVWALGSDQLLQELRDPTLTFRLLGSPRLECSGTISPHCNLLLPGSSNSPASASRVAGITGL
Kind of assay: HPK1-FL HTRF Enzymatic Assay ("HTRF"). The format is biochemical. The settings on record: ATP 1 mM, read-out: HPK1 Ki (nM) H = HTRF. As for the experimental part:
Example B1: HPK1-FL HTRF Enzymatic Assay (“HTRF”)
HPK-FL enzyme phosphorylates Biotin-SLP-76 substrate in the presence of ATP at 1 mM and varying concentrations of test compound. Product is detected by FRET using Eu-anti-pSLP76 Ab and SA-XL665. Also see www.cisbio.com/HTRF for additional HTRF technology information.
• Echo555 compound dispenser • Agilent Bravo • Perkin Elmer Envision Final Assay Conditions: • HPK full length, T165E S171E: 0.125 nM • Biotin-SLP76: 100 nM • ATP: 1 mM (ATP Km=20 μM) • Eu-anti-pSLP76: 2 nM • SA-XL665: 8.3 nM • Preincubation time: 30 min • Kinase reaction time: 60 min • Temperature: ambient • Total volume: 12 μl • ATP^app Km: 17.7 μM Materials: • Assay plate: White ProxiPlate 384 F (PerkinElmer cat #6008289) • Kinase: HPK full length double mutant • Substrate: Biotin-SLP76 • ATP: 100 mM ATP • BSG: 2% BSG • DMSO: DMSO(Sigma cat #34869-100ML) • Reaction Buffer: H2O/50 mM HEPES, pH 7.5/10 mM MgCl2/2 mM TCEP/0.01% Brij-35/0.01% BSG • Detection mix: Eu-anti-pSLP76/SA-XL665 (Cisbio, #610SAXAC) Assay Procedure Ki Determination:
To a 384 well Proxiplate with 80 nL compound or DMSO spotted on was added 4 μl/well kinase mix. The mixture was preincubated for 30 minutes and then 4 μl/well substrate mix was added. The solution was incubated for 60 min and then 4 μl/well detection mix was added. The solution was incubated for another 60 min. The plates were then loaded onto a Perkin Elmer Envision and the TR-FRET signal was measured at 615 and 665 nm. A ratio of […] was used to calculate the % activity at each concentration of compound.
(In TR-FRET formats the signal depends on donor and acceptor labels being close together.)
In the case of `Cc1cc(Nc2cc3cc(C4CC4)ncc3cn2)ncn1` [Compound 209, 6-cyclopropyl-N-(6-methylpyrimidin-4-yl)-2,7-naphthyridin-3-amine], the Ki is more than 2000 nM.
Regarding `CNCc1cc(C)c(-c2cc3cc(Nc4cc5n(n4)CC(=O)N(C)CC5)ncc3cn2)c(F)c1` [Compound 110, 2-((6-(2-fluoro-6-methyl-4-((methylamino)methyl)phenyl)-2,7-naphthyridin-3-yl)amino)-6-methyl-5,6-dihydro-4H-pyrazolo[1,5-d][1,4]diazepin-7(8H)-one], the Ki was found to be 13 nM.
On the same count and under the same terms, next, `Cc1ccncc1-c1cc2cc(Nc3ccc(CO)cn3)ncc2cn1` [Compound 206, (6-((6-(4-methylpyridin-3-yl)-2,7-naphthyridin-3-yl)amino)pyridin-3-yl)methanol]: 577 nM.
Turning to `Cc1c(N)cncc1-c1cc2cc(Nc3cc4n(n3)CC(=O)N(C(C)C)CC4)ncc2cn1` [Compound 104, 2-((6-(5-amino-4-methylpyridin-3-yl)-2,7-naphthyridin-3-yl)amino)-6-isopropyl-5,6-dihydro-4H-pyrazolo[1,5-d][1,4]diazepin-7(8H)-one], the Ki is 2.3 nM.
For the compound `Cc1c(-c2cc3cc(Nc4cc5n(n4)CC(=O)N(C)CC5)ncc3c(C)n2)cnc2c1NCCO2` [Compound 108, 6-methyl-2-((8-methyl-6-(8-methyl-2,3-dihydro-1H-pyrido[2,3-b][1,4]oxazin-7-yl)-2,7-naphthyridin-3-yl)amino)-5,6-dihydro-4H-pyrazolo[1,5-d][1,4]diazepin-7(8H)-one], the Ki was determined as 0.66 nM.
Turning to `Cc1c(N)cncc1-c1cc2cc(Nc3cc4n(n3)Cc3nccn3CC4)ncc2c(C)n1` [Compound 105, N-(6-(5-amino-4-methylpyridin-3-yl)-8-methyl-2,7-naphthyridin-3-yl)-5,6-dihydro-11H-imidazo[1,2-a]pyrazolo[1,5-d][1,4]diazepin-8-amine], the Ki is 0.85 nM.
For `COc1nc(-c2cnc3c(c2C)NCCO3)cc2cc(Nc3cc4n(n3)CC(=O)N(C)CC4)ncc12` [Compound 107, 2-((8-methoxy-6-(8-methyl-2,3-dihydro-1H-pyrido[2,3-b][1,4]oxazin-7-yl)-2,7-naphthyridin-3-yl)amino)-6-methyl-5,6-dihydro-4H-pyrazolo[1,5-d][1,4]diazepin-7(8H)-one], the Ki came to 2.1 nM.
For the compound `Cc1ccncc1-c1cc2cc(Nc3cc(C(=O)N(C)C)c(N)cn3)ncc2cn1` [Compound 201, 5-amino-N,N-dimethyl-2-((6-(4-methylpyridin-3-yl)-2,7-naphthyridin-3-yl)amino)isonicotinamide], the Ki was determined as 463 nM.
The same measure, in the same setting: with `Cc1c(N)cncc1-c1cc2cc(Nc3cc4n(n3)CC(=O)N(CC(F)F)CC4)ncc2cn1` [Compound 102, 2-((6-(5-amino-4-methylpyridin-3-yl)-2,7-naphthyridin-3-yl)amino)-6-(2,2-difluoroethyl)-5,6-dihydro-4H-pyrazolo[1,5-d][1,4]diazepin-7(8H)-one] the figure was 4 nM; with `Cc1ccncc1-c1cc2cc(Nc3ccc(S(C)(=O)=O)cn3)ncc2cn1` [Compound 202, 6-(4-methylpyridin-3-yl)-N-(5-(methylsulfonyl)pyridin-2-yl)-2,7-naphthyridin-3-amine], 291 nM; with `Cc1c(N)cncc1-c1cc2cc(Nc3cc4n(n3)CC(=O)N(C(C)C)CC4)ncc2c(C)n1` [Compound 106, 2-((6-(5-amino-4-methylpyridin-3-yl)-8-methyl-2,7-naphthyridin-3-yl)amino)-6-isopropyl-5,6-dihydro-4H-pyrazolo[1,5-d][1,4]diazepin-7(8H)-one], 2.5 nM.
For the compound `Cc1c(-c2cc3cc(Nc4cc5n(n4)CC(=O)N(C)CC54CC4)ncc3c(C)n2)cnc2c1NCCO2` [Compound 109, 6′-methyl-2′-((8-methyl-6-(8-methyl-2,3-dihydro-1H-pyrido[2,3-b][1,4]oxazin-7-yl)-2,7-naphthyridin-3-yl)amino)-5′,6′-dihydrospiro[cyclopropane-1,4′-pyrazolo[1,5-d][1,4]diazepin]-7′(8′H)-one], the Ki is 0.03 nM.

These data come from patent US12297210B2, “Naphthyridine compounds and uses thereof” (Genentech, Inc., priority 2018, dated 2025).
